Experimental data: patent US12723063B2, “GIPR-agonist compounds” (Eli Lilly and Company, priority 2019, dated 2026)
*1 amine or outer side, *2 acyl side, *3 side chain or, on linkers, in order; H or OH if unused. Where a SMILES comes first, the peptide text is derived from it. Side-chain parts run from the residue outwards. [ ]: non-standard residue; d: D form. The star is where a group is joined. C20 diacid = O=C(O)CCCCCCCCCCCCCCCCCCC(=O)*; αMePhe(2-F) = C[C@](N)(Cc1ccccc1F)C(=O)O; γGlu = O=C(O)[C@H](CCC(=O)[*:2])N[*:1]; αMeF = C[C@](N)(Cc1ccccc1)C(=O)O; 4Pal = N[C@@H](Cc1ccncc1)C(=O)O; αMeL = CC(C)C[C@](C)(N)C(=O)O; AEEA = NCCOCCOCC(=O)O; Aib = CC(C)(N)C(=O)O

The compounds below were run against T1, human GIPR (Homo sapiens, UniProt P48546) (assay: [125I]-GIP binding, SPA with WGA beads, 0.1% bacitracin). Details: geometric mean, read-out: hGIPR Ki.
T1 construct: expressed in transfected cells; crude membranes
T1 sequence (P48546 22-466): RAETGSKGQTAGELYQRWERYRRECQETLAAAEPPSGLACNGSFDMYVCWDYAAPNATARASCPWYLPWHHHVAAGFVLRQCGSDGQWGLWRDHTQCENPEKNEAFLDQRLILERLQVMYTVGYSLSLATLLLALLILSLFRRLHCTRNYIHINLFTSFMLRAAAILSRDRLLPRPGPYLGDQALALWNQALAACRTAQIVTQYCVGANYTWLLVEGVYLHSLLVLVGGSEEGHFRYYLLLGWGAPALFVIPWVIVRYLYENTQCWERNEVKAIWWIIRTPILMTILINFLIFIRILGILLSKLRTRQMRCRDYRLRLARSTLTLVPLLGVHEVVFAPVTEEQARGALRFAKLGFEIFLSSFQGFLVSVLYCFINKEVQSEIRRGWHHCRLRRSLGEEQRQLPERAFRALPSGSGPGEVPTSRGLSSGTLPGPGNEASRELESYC
Procedure, shortened: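 Ki values are geometric means (SEM, n independent days), derived from four-parameter nonlinear regression of IC50. Membranes came from hGIPR-expressing CHO cells.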

Row | SMILES | Ki
1 | CC[C@H](C)[C@H](NC(=O)[C@H](CO)NC(=O)[C@H](Cc1ccc(O)cc1)NC(=O)[C@H](CC(=O)O)NC(=O)[C@H](CO)NC(=O)[C@@H](NC(=O)[C@](C)(Cc1ccccc1)NC(=O)[C@@H](NC(=O)CNC(=O)[C@H](CCC(=O)O)NC(=O)C(C)(C)NC(=O)[C@@H](N)Cc1ccc(O)cc1)[C@@H](C)O)[C@@H](C)CC)C(=O)N[C@@](C)(CC(C)C)C(=O)N[C@@H](CC(C)C)C(=O)N[C@@H](CC(=O)O)C(=O)N[C@@H](CCCCN)C(=O)N[C@@H](CCCCNC(=O)COCCOCCNC(=O)COCCOCCNC(=O)CC[C@H](NC(=O)CCCCCCCCCCCCCCCCCCC(=O)O)C(=O)O)C(=O)N[C@@H](Cc1c[nH]cn1)C(=O)N[C@@H](CCC(N)=O)C(=O)NC(C)(C)C(=O)N[C@@H](CCC(=O)O)C(=O)N[C@@H](Cc1ccccc1)C(=O)N[C@H](C(=O)N[C@@H](CCC(=O)O)C(=O)N[C@@H](Cc1ccncc1)C(=O)N[C@@H](CC(C)C)C(=O)N[C@@H](CC(C)C)C(=O)N[C@@H](C)C(=O)N[C@H](C(=O)NCC(=O)N1CCC[C@H]1C(=O)N[C@@H](CO)C(=O)N[C@@H](CO)C(=O)NCC(=O)N[C@@H](C)C(=O)N1CCC[C@H]1C(=O)N1CCC[C@H]1C(=O)N1CCC[C@H]1C(=O)N[C@@H](CO)C(N)=O)[C@@H](C)O)C(C)C [Example 61] (H-Y[Aib]EGT[αMeF]ISDYSI[αMeL]LDKK([AEEA-AEEA-γGlu-C20 diacid])HQ[Aib]EFVE[4Pal]LLATGPSSGAPPPS-NH2) | 0.0665 nM
2 | CC[C@H](C)[C@H](NC(=O)[C@H](Cc1ccccc1)NC(=O)[C@@H](NC(=O)CNC(=O)[C@H](CCC(=O)O)NC(=O)C(C)(C)NC(=O)[C@@H](N)Cc1ccc(O)cc1)[C@@H](C)O)C(=O)N[C@@H](CO)C(=O)N[C@@H](CC(=O)O)C(=O)N[C@@H](Cc1ccc(O)cc1)C(=O)N[C@@H](CO)C(=O)N[C@H](C(=O)N[C@@](C)(CC(C)C)C(=O)N[C@@H](CC(C)C)C(=O)N[C@@H](CC(=O)O)C(=O)N[C@@H](CCCCN)C(=O)N[C@@H](CCCCNC(=O)COCCOCCNC(=O)COCCOCCNC(=O)CC[C@H](NC(=O)CCCCCCCCCCCCCCCCCCC(=O)O)C(=O)O)C(=O)N[C@@H](Cc1c[nH]cn1)C(=O)N[C@@H](CCC(N)=O)C(=O)NC(C)(C)C(=O)N[C@@H](CC(=O)O)C(=O)N[C@@H](Cc1ccccc1)C(=O)N[C@H](C(=O)N[C@@H](CCC(=O)O)C(=O)N[C@@H](Cc1ccncc1)C(=O)N[C@@H](CC(C)C)C(=O)N[C@@H](CC(C)C)C(=O)N[C@@H](C)C(=O)N[C@H](C(=O)NCC(=O)N1CCC[C@H]1C(=O)N[C@@H](CO)C(=O)N[C@@H](CO)C(=O)NCC(=O)N[C@@H](C)C(=O)N1CCC[C@H]1C(=O)N1CCC[C@H]1C(=O)N1CCC[C@H]1C(=O)N[C@@H](CO)C(N)=O)[C@@H](C)O)C(C)C)[C@@H](C)CC [Example 70] (H-Y[Aib]EGTFISDYSI[αMeL]LDKK([AEEA-AEEA-γGlu-C20 diacid])HQ[Aib]DFVE[4Pal]LLATGPSSGAPPPS-NH2) | 0.0421 nM
3 | CC[C@H](C)[C@H](NC(=O)[C@H](CO)NC(=O)[C@H](Cc1ccc(O)cc1)NC(=O)[C@H](CC(=O)O)NC(=O)[C@H](CO)NC(=O)[C@@H](NC(=O)[C@](C)(Cc1ccccc1)NC(=O)[C@@H](NC(=O)CNC(=O)[C@H](CCC(=O)O)NC(=O)C(C)(C)NC(=O)[C@@H](N)Cc1ccc(O)cc1)[C@@H](C)O)[C@@H](C)CC)C(=O)N[C@@H](C)C(=O)N[C@@H](CC(C)C)C(=O)N[C@@H](CC(=O)O)C(=O)N[C@@H](CCCCN)C(=O)N[C@@H](CCCCNC(=O)COCCOCCNC(=O)COCCOCCNC(=O)CC[C@H](NC(=O)CCCCCCCCCCCCCCCCCCC(=O)O)C(=O)O)C(=O)N[C@@H](Cc1c[nH]cn1)C(=O)N[C@@H](CCC(N)=O)C(=O)NC(C)(C)C(=O)N[C@@H](CC(=O)O)C(=O)N[C@@H](Cc1ccccc1)C(=O)N[C@H](C(=O)N[C@@H](CCC(=O)O)C(=O)N[C@@H](Cc1ccncc1)C(=O)N[C@@H](CC(C)C)C(=O)N[C@@H](CC(C)C)C(=O)N[C@@H](CCC(=O)O)C(=O)N[C@@H](CCC(N)=O)C(=O)NCC(=O)N1CCC[C@H]1C(=O)N[C@@H](CO)C(=O)N[C@@H](CO)C(=O)NCC(=O)N[C@@H](C)C(=O)N1CCC[C@H]1C(=O)N1CCC[C@H]1C(=O)N1CCC[C@H]1C(=O)N[C@@H](CO)C(N)=O)C(C)C [Example 42] (H-Y[Aib]EGT[αMeF]ISDYSIALDKK([AEEA-AEEA-γGlu-C20 diacid])HQ[Aib]DFVE[4Pal]LLEQGPSSGAPPPS-NH2) | 0.0392 nM
4 | CC[C@H](C)[C@H](NC(=O)[C@H](Cc1ccccc1)NC(=O)[C@@H](NC(=O)CNC(=O)[C@H](CCC(=O)O)NC(=O)C(C)(C)NC(=O)[C@@H](N)Cc1ccc(O)cc1)[C@@H](C)O)C(=O)N[C@@H](CO)C(=O)N[C@@H](CC(=O)O)C(=O)N[C@@H](Cc1ccc(O)cc1)C(=O)N[C@@H](CO)C(=O)N[C@H](C(=O)N[C@@](C)(CC(C)C)C(=O)N[C@@H](CC(C)C)C(=O)N[C@@H](CC(=O)O)C(=O)N[C@@H](CCCCN)C(=O)N[C@@H](CCCCNC(=O)COCCOCCNC(=O)COCCOCCNC(=O)CC[C@H](NC(=O)CCCCCCCCCCCCCCCCCCC(=O)O)C(=O)O)C(=O)N[C@@H](Cc1c[nH]cn1)C(=O)N[C@@H](CCC(N)=O)C(=O)NC(C)(C)C(=O)N[C@@H](CC(=O)O)C(=O)N[C@@H](Cc1ccccc1)C(=O)N[C@H](C(=O)N[C@@H](CCC(=O)O)C(=O)N[C@@H](Cc1ccncc1)C(=O)N[C@@H](CC(C)C)C(=O)N[C@@H](CC(C)C)C(=O)N[C@@H](CCC(=O)O)C(=O)NCC(=O)NCC(=O)N1CCC[C@H]1C(=O)N[C@@H](CO)C(=O)N[C@@H](CO)C(=O)NCC(=O)N[C@@H](C)C(=O)N1CCC[C@H]1C(=O)N1CCC[C@H]1C(=O)N1CCC[C@H]1C(=O)N[C@@H](CO)C(N)=O)C(C)C)[C@@H](C)CC [Example 47] (H-Y[Aib]EGTFISDYSI[αMeL]LDKK([AEEA-AEEA-γGlu-C20 diacid])HQ[Aib]DFVE[4Pal]LLEGGPSSGAPPPS-NH2) | 0.0452 nM
5 | CC[C@H](C)[C@H](NC(=O)[C@H](Cc1ccccc1)NC(=O)[C@@H](NC(=O)CNC(=O)[C@H](CCC(=O)O)NC(=O)C(C)(C)NC(=O)[C@@H](N)Cc1ccc(O)cc1)[C@@H](C)O)C(=O)N[C@@H](CO)C(=O)N[C@@H](CC(=O)O)C(=O)N[C@@H](Cc1ccc(O)cc1)C(=O)N[C@@H](CO)C(=O)N[C@H](C(=O)N[C@@](C)(CC(C)C)C(=O)N[C@@H](CC(C)C)C(=O)N[C@@H](CC(=O)O)C(=O)N[C@@H](CCCCN)C(=O)N[C@@H](CCCCNC(=O)COCCOCCNC(=O)COCCOCCNC(=O)CC[C@H](NC(=O)CCCCCCCCCCCCCCCCCCC(=O)O)C(=O)O)C(=O)N[C@@H](Cc1c[nH]cn1)C(=O)N[C@@H](CCC(N)=O)C(=O)NC(C)(C)C(=O)N[C@@H](CC(=O)O)C(=O)N[C@@](C)(Cc1ccccc1)C(=O)N[C@H](C(=O)N[C@@H](CCC(=O)O)C(=O)N[C@@H](Cc1ccncc1)C(=O)N[C@@H](CC(C)C)C(=O)N[C@@H](CC(C)C)C(=O)N[C@@H](C)C(=O)NCC(=O)NCC(=O)N1CCC[C@H]1C(=O)N[C@@H](CO)C(=O)N[C@@H](CO)C(=O)NCC(=O)N[C@@H](C)C(=O)N1CCC[C@H]1C(=O)N1CCC[C@H]1C(=O)N1CCC[C@H]1C(=O)N[C@@H](CO)C(N)=O)C(C)C)[C@@H](C)CC [Example 56] | 0.0487 nM
6 | CC[C@H](C)[C@H](NC(=O)[C@H](CO)NC(=O)[C@H](Cc1ccc(O)cc1)NC(=O)[C@H](CC(=O)O)NC(=O)[C@H](CO)NC(=O)[C@@H](NC(=O)[C@](C)(Cc1ccccc1F)NC(=O)[C@@H](NC(=O)CNC(=O)[C@H](CCC(=O)O)NC(=O)C(C)(C)NC(=O)[C@@H](N)Cc1ccc(O)cc1)[C@@H](C)O)[C@@H](C)CC)C(=O)N[C@@](C)(CC(C)C)C(=O)N[C@@H](CC(C)C)C(=O)N[C@@H](CC(=O)O)C(=O)N[C@@H](CCCCN)C(=O)N[C@@H](CCCCNC(=O)COCCOCCNC(=O)COCCOCCNC(=O)CC[C@H](NC(=O)CCCCCCCCCCCCCCCCCCC(=O)O)C(=O)O)C(=O)N[C@@H](Cc1c[nH]cn1)C(=O)N[C@@H](CCC(N)=O)C(=O)NC(C)(C)C(=O)N[C@@H](CC(=O)O)C(=O)N[C@@H](Cc1ccccc1)C(=O)N[C@H](C(=O)N[C@@H](CCC(=O)O)C(=O)N[C@@H](Cc1ccncc1)C(=O)N[C@@H](CC(C)C)C(=O)N[C@@H](CC(C)C)C(=O)N[C@@H](C)C(=O)NCC(=O)NCC(=O)N1CCC[C@H]1C(=O)N[C@@H](CO)C(=O)N[C@@H](CO)C(=O)NCC(=O)N[C@@H](C)C(=O)N1CCC[C@H]1C(=O)N1CCC[C@H]1C(=O)N1CCC[C@H]1C(=O)N[C@@H](CO)C(N)=O)C(C)C [Example 51] (H-Y[Aib]EGT[αMePhe(2-F)]ISDYSI[αMeL]LDKK([AEEA-AEEA-γGlu-C20 diacid])HQ[Aib]DFVE[4Pal]LLAGGPSSGAPPPS-NH2) | 0.0386 nM
